The structures appear in SMILES notation.

The nature of the data set: Acute toxicity by the Weill method. To be noted: in vivo, mouse, read-out: LD₅₀. The protocol:
The acute toxicity of the compounds according to the invention was studied on the mouse by the Weill method (Weill C.S. Biomed. J. 8 249 (1952)). […] For the compound of formula (I) wherein n=1 and R, R¹ equal to H, the LD₅₀ is higher than 2000 mg/kg.

As to `C[N+](C)(C)CCOP(=O)([O-])OP(=O)(O)OCC(O)CO` (stereo not drawn) [choline α-glyceryl disphosphate], the LD50 was over 2000 mg/kg.

(Values after patent publication EP0329053A1, “Choline esters of glycerophosphoric acids” (MAGIS FARMACEUTICI S.p.A., priority 1988, dated 1989).)
